# From ChEMBL document CHEMBL4043266, “Pentacyclic triterpenes as α-glucosidase and α-amylase inhibitors: Structure-activity relationships and the synergism with acarbose” (Bioorg Med Chem Lett, 2017)
# Legend:
# [1] = biological target: T1, Pancreatic alpha-amylase (Sus scrofa) (UniProt P00690)
# T1 sequence (whole entry): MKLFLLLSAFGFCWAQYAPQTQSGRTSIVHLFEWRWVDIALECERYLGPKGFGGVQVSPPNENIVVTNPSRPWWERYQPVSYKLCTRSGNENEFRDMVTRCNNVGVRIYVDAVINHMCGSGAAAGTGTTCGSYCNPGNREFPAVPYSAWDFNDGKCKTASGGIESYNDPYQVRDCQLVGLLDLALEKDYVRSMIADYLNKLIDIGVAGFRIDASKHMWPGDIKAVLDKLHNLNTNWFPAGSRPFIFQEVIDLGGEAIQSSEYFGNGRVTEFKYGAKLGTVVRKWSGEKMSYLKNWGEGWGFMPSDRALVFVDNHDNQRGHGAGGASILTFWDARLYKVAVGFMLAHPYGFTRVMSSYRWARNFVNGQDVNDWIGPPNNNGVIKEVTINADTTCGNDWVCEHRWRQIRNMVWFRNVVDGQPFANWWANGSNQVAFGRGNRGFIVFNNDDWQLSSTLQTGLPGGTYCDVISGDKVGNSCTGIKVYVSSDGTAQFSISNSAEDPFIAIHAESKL
# Description: Non-competitive inhibition of porcine pancreatic alpha-amylase assessed as inhibitor-enzyme complex using starch as substrate by Lineweaver-Burk plot analysis
# [2] = biological target: T1, Pancreatic alpha-amylase (Sus scrofa); remark: listed apart in the source
# Description: Non-competitive inhibition of porcine pancreatic alpha-amylase assessed as inhibitor-enzyme-substrate complex using starch as substrate by Lineweaver-Burk plot analysis
compound,measurement,setting,value
C[C@H]1[C@H](C)CC[C@]2(C(=O)O)CC[C@]3(C)C(=CC[C@@H]4[C@@]5(C)C[C@@H](O)[C@H](O)C(C)(C)[C@@H]5CC[C@]43C)[C@H]12,Kii,[1],28.3 µM
same,Kis,[2],25.6 µM
